Experimental findings from PubChem BioAssay (NCI) are described below.

Among the test systems are HCT-116 colon; SN12C renal; OVCAR-4 ovarian; UACC-62 melanoma; MCF7 breast; 786-0 renal; MDA-MB-231 breast; MDA-MB-435; SK-MEL-28 melanoma; SK-MEL-5 melanoma.
Common to all, as to test: inhibition of tumour cell growth, NCI panel, 48 h

The structures appear in SMILES notation.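 Protocol summary: plate cells (96-well), add compound at 5 concentrations, incubate 48 h, interpolate endpoints linearly. GI50 is the concentration that inhibits growth by half. At the TGI there is no net growth.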

Take `Nc1ccccc1C#C/C=C\C#Cc1ccc(Cl)cc1Cl`: the GI50 was 12 µM in the experiment with HCT-116 colon; 14.4 µM in the experiment with SN12C renal; 28.5 µM with OVCAR-4 ovarian; 14.5 µM in the experiment with UACC-62 melanoma; 3.52 µM in the experiment on MCF7 breast; 13.5 µM in the experiment with 786-0 renal. The GI50 with MDA-MB-231 breast is 15.8 µM; with MDA-MB-435, 2.41 µM; in the experiment with SK-MEL-28 melanoma, 27 µM; in the experiment with SK-MEL-5 melanoma, 6.63 µM. The TGI in the experiment with HCT-116 colon is 24.9 µM; in the experiment with SN12C renal, 30.5 µM; in the experiment with OVCAR-4 ovarian, over 100 µM; in the experiment on UACC-62 melanoma it was 31.7 µM; in the experiment on MCF7 breast it was 39.7 µM; with 786-0 renal it was 27.4 µM. Besides, the TGI is 35.6 µM in the experiment on MDA-MB-231 breast, 5.8 µM with MDA-MB-435, over 100 µM in the experiment on SK-MEL-28 melanoma and 21.2 µM in the experiment with SK-MEL-5 melanoma.

Regarding `C/C=C(\C)C(=O)O[C@H]1C=CC(=O)O[C@H]1CNC(=O)[C@H](C)O`, the GI50 in the experiment with HCT-116 colon was 13.1 µM; in the experiment with SN12C renal it was 18.9 µM; in the experiment with OVCAR-4 ovarian, 17.3 µM; in the experiment with UACC-62 melanoma, 16.1 µM; with MCF7 breast it was 19.7 µM; in the experiment on 786-0 renal, 13.3 µM. The GI50 in the experiment with MDA-MB-231 breast is 19.1 µM; with MDA-MB-435, 20.1 µM; in the experiment with SK-MEL-28 melanoma, 17.4 µM; in the experiment on SK-MEL-5 melanoma, 17 µM. For the same molecule, the TGI in the experiment on HCT-116 colon worked out at 26 µM; in the experiment on SN12C renal, 40.3 µM; in the experiment with OVCAR-4 ovarian, 36.1 µM; with UACC-62 melanoma, 30.5 µM; with MCF7 breast, 42.3 µM; in the experiment on 786-0 renal it was 26.1 µM. Moreover, the TGI came to 36.3 µM with MDA-MB-231 breast, 44.7 µM in the experiment on MDA-MB-435, 32.4 µM with SK-MEL-28 melanoma and 31.3 µM in the experiment with SK-MEL-5 melanoma.

Take `O=[N+]([O-])/C=C/c1c[nH]c2ccccc12`: the GI50 is 3.32 µM in the experiment on HCT-116 colon; 17.8 µM with SN12C renal; 12.4 µM in the experiment on OVCAR-4 ovarian; 17.4 µM in the experiment on UACC-62 melanoma; 6.02 µM in the experiment with MCF7 breast; 13.5 µM in the experiment with 786-0 renal. For the same molecule, the GI50 with MDA-MB-231 breast is 15.2 µM; with MDA-MB-435, 2.15 µM; in the experiment on SK-MEL-28 melanoma it was 17.4 µM; in the experiment on SK-MEL-5 melanoma, 16 µM. Also, the TGI in the experiment with HCT-116 colon was found to be 11.3 µM; in the experiment with SN12C renal, 37.1 µM; in the experiment with OVCAR-4 ovarian, 26.8 µM; in the experiment on UACC-62 melanoma, 32.3 µM; in the experiment on MCF7 breast it was 38.4 µM; with 786-0 renal, 27.2 µM. Moreover, the TGI in the experiment on MDA-MB-231 breast came out at 30.7 µM; in the experiment on MDA-MB-435, 5.06 µM; with SK-MEL-28 melanoma, 32.5 µM; in the experiment on SK-MEL-5 melanoma, 32.1 µM.
